Here are results for 52 compounds from article PMC11550483 (2024).

This assay addresses SARS2 M^pro (Severe acute respiratory syndrome coronavirus 2, UniProt P0DTD1, P3395H). Format: biochemical, SARS-CoV-2.
Take `CCOC(=O)c1c(NC(=O)CCl)sc2c1CC(C)(C)NC2(C)C` [MWAC-0001854, CCOC(=O)c1c(NC(=O)CCl)sc2c1CC(C)(C)NC2(C)C]: the “% inhibition (20 µM) biochemical” value worked out at 98%. For `O=C1/C(=C/c2ccc(F)cc2)SC(=S)N1Cc1cccnc1` [MWAC-0001802, Fc1ccc(\C=C\2/SC(=S)N(Cc3cccnc3)C2=O)cc1] the value was 7%; for `COc1cc(OC)cc(C(=O)Nc2ccc(OC(C)C)cc2)c1` [MWAC-0001801, COc1cc(OC)cc(c1)C(=O)Nc2ccc(OC(C)C)cc2], 5%. For `Cc1nn(CC(=O)NCc2ccc3c(c2)OCO3)c(=O)c2c1cnn2C(C)(C)C` [MWAC-0000539, CC1=NN(CC(=O)NCc2ccc3OCOc3c2)C(=O)c4c1cnn4C(C)(C)C] the value was 19%; for `O=C1NC(=S)NC(=O)C1=Cc1cccc(OS(=O)(=O)c2ccc3ccccc3c2)c1` [MWAC-0001766, O=C1NC(=S)NC(=O)C1=Cc2cccc(OS(=O)(=O)c3ccc4ccccc4c3)c2], 15%; for `Cc1cc(C(=O)COn2nnc3ccccc32)c(C)n1-c1ccc2c(c1)OCO2` [MWAC-0001845, Cc1cc(C(=O)COn2nnc3ccccc23)c(C)n1c4ccc5OCOc5c4], 20%.

For the compound `CC(C)c1cc(C(=O)Nc2ccc(Br)cc2)no1` [MWAC-0001748, CC(C)c1onc(c1)C(=O)Nc2ccc(Br)cc2], the “% inhibition (20 µM) biochemical” value was 6%. As to `CCCOc1ccc(CN2C(=O)C(=O)c3ccccc32)cc1` [MWAC-0001830, CCCOc1ccc(CN2C(=O)C(=O)c3ccccc23)cc1], the “% inhibition (20 µM) biochemical” value was found to be 5%. The result for `Cc1cc(C(=O)COn2nnc3ccc(Cl)cc32)c(C)n1-c1ccc2c(c1)OCO2` [MWAC-0001837, Cc1cc(C(=O)COn2nnc3ccc(Cl)cc23)c(C)n1c4ccc5OCOc5c4] reads 26%. The result for `O=C(CC1(O)C(=O)Nc2ccc(I)cc21)c1cccs1` (stereo not shown) [MWAC-0001763, OC1(CC(=O)c2cccs2)C(=O)Nc3ccc(I)cc13] reads 6.56%; that for `CSc1cccc(NC(=O)c2cnn3ccccc23)c1` [MWAC-0001883, CSc1cccc(NC(=O)c2cnn3ccccc23)c1], 0%; that for `CCN(CC)c1ccc(/C=N/n2c(S)nnc2-c2cccnc2)c(O)c1` [MWAC-0001796, CCN(CC)c1ccc(\C=N\n2c(S)nnc2c3cccnc3)c(O)c1], 9%. For `O=C(CCC(=O)Nc1ccc2c(c1)OCCO2)Nc1ccc(OCc2ccccc2)cc1` [MWAC-0001840, O=C(CCC(=O)Nc1ccc2OCCOc2c1)Nc3ccc(OCc4ccccc4)cc3] the value was 3%. Regarding `O=C1NC(=O)C(=Cc2cc(Br)ccc2OCc2cccc(F)c2)C(=O)N1` [MWAC-0001793, Fc1cccc(COc2ccc(Br)cc2C=C3C(=O)NC(=O)NC3=O)c1], the “% inhibition (20 µM) biochemical” value is recorded as 4%. For `Cc1ccc(/C=C/C(=O)Nc2ccccc2Br)o1` [MWAC-0001759, Cc1oc(\C=C\C(=O)Nc2ccccc2Br)cc1] the value was 15%; for `CCOc1ccccc1C1Nc2ccccc2NC2=C1C(=O)CC(c1ccc3c(c1)OCO3)C2` (stereo not shown) [MWAC-0001720, CCOc1ccccc1C2Nc3ccccc3NC4=C2C(=O)CC(C4)c5ccc6OCOc6c5], 0%; for `COc1ccc(C2=NN3C(C2)c2ccccc2OC3c2ccc(C(C)(C)C)cc2)cc1` (stereo not shown) [MWAC-0001719, COc1ccc(cc1)C2=NN3C(C2)c4ccccc4OC3c5ccc(cc5)C(C)(C)C], 5%.

As for `CCc1c(C)sc(NC(=O)CCc2ccccc2)c1C(N)=O` [MWAC-0001812, CCc1c(C)sc(NC(=O)CCc2ccccc2)c1C(=O)N], the “% inhibition (20 µM) biochemical” value is on record as 4%.

Consider `Fc1nc(F)c(F)c(SC(=S)N2CCOCC2)c1F` [MWAC-0001725, Fc1nc(F)c(F)c(SC(=S)N2CCOCC2)c1F], for which the “% inhibition (20 µM) biochemical” value was 3.69%. As to `Cc1ccccc1-c1noc(-c2ccc(O)cc2)n1` [MWAC-0001749, Cc1ccccc1c2noc(n2)c3ccc(O)cc3], the “% inhibition (20 µM) biochemical” value is listed as 9%. With `O=C(NNC(=O)C(c1ccccc1)c1ccccc1)Nc1cccc(Cl)c1` [MWAC-0001779, Clc1cccc(NC(=O)NNC(=O)C(c2ccccc2)c3ccccc3)c1], the “% inhibition (20 µM) biochemical” value is listed as 3%.

Take `O=C(Nc1nc2ccccc2[nH]1)c1ccc(Br)o1` [MWAC-0001805, Brc1oc(cc1)C(=O)Nc2nc3ccccc3[nH]2]: the “% inhibition (20 µM) biochemical” value amounted to 9%.

For `Cc1cc(C(=O)CCl)c(C)n1CCc1cccs1` [MWAC-0001825, Cc1cc(C(=O)CCl)c(C)n1CCc2cccs2], the “% inhibition (20 µM) biochemical” value is reported as 56%.

In the case of `CN1C(=O)C(=Cc2cc(O)ccc2Br)C(=O)N(C)C1=O` [MWAC-0001799, CN1C(=O)N(C)C(=O)C(=Cc2cc(O)ccc2Br)C1=O], the “% inhibition (20 µM) biochemical” value was found to be 5.42%. For `COc1ccc(CC(=O)NCc2ccccc2Cl)cc1` [MWAC-0001807, COc1ccc(CC(=O)NCc2ccccc2Cl)cc1] the value was 1%; for `CCCCS(=O)(=O)N(O)c1ccc(Cl)cc1` [MWAC-0001856, CCCCS(=O)(=O)N(O)c1ccc(Cl)cc1], 4%. For `COc1cccc(-c2cc(C(=O)N3CCCCC3C)no2)c1` (stereo not shown) [MWAC-0001739, COc1cccc(c1)c2onc(c2)C(=O)N3CCCCC3C] the value was 2.35%; for `COc1ccc(C2=NN3C(C2)c2ccccc2OC32C(=O)Nc3ccccc32)cc1OC` (stereo not shown) [MWAC-0001819, COc1ccc(cc1OC)C2=NN3C(C2)c4ccccc4OC35C(=O)Nc6ccccc56], 0.611%. The result for `COc1ccc2ccccc2c1/C=C1/S/C(=N/c2ccccc2Cl)NC1=O` [MWAC-0001721, COc1ccc2ccccc2c1\C=C/3\S\C(=N\c4ccccc4Cl)\NC3=O] reads 6%.

For `Cc1cccc2c1NC(=O)/C2=C\C(=O)c1cccs1` [MWAC-0001756, Cc1cccc2\C(=C\C(=O)c3cccs3)\C(=O)Nc12], the “% inhibition (20 µM) biochemical” value came out at 13%. For `CCCN1C(=O)C(O)(CC(=O)c2ccccc2OC)c2cc(Br)ccc21` (stereo not shown) [MWAC-0001769, CCCN1C(=O)C(O)(CC(=O)c2ccccc2OC)c3cc(Br)ccc13] the value was 2.64%; for `Cc1cc(C)c2oc(-c3ccc(C)c(N)c3)nc2c1` [MWAC-0001715, Cc1cc(C)c2oc(nc2c1)c3ccc(C)c(N)c3], 0%. The result for `Cc1ccc(Cc2cnc(NC(=O)c3cccs3)s2)cc1` [MWAC-0001882, Cc1ccc(Cc2cnc(NC(=O)c3cccs3)s2)cc1] reads 0%; that for `COC(=O)c1ccc(C(=O)Nc2ccccc2N)cc1` [MWAC-0001884, COC(=O)c1ccc(cc1)C(=O)Nc2ccccc2N], 0%; that for `Nc1ncnc(N)c1N=Nc1ccccc1` [MWAC-0001835, Nc1ncnc(N)c1N=Nc2ccccc2], 6.65%. The result for `CN(C)c1ccc(/C=N\Nc2cn[nH]c(=O)c2Cl)cc1` [MWAC-0001746, CN(C)c1ccc(\C=N/NC2=C(Cl)C(=O)NN=C2)cc1] reads 15%. Take `S=C(c1ccc(-c2cccc(Cl)c2)o1)N1CCCCC1` [MWAC-0001879, Clc1cccc(c1)c2oc(cc2)C(=S)N3CCCCC3]: the “% inhibition (20 µM) biochemical” value amounted to 0%.

Take `O=C1/C(=C/c2ccc3c(c2)OCO3)SC(=S)N1Cc1cccnc1` [MWAC-0001792, O=C1N(Cc2cccnc2)C(=S)S/C/1=C\c3ccc4OCOc4c3]: the “% inhibition (20 µM) biochemical” value is 14%. The result for `Cc1cccc(NC(=O)COc2ccc(Br)cc2/C=N/O)c1` [MWAC-0001791, Cc1cccc(NC(=O)COc2ccc(Br)cc2\C=N\O)c1] reads 0.745%; that for `CCOc1ccc2nc(SC3CC(=O)N(c4ccccc4C(F)(F)F)C3=O)sc2c1` (stereo not shown) [MWAC-0001714, CCOc1ccc2nc(SC3CC(=O)N(C3=O)c4ccccc4C(F)(F)F)sc2c1], 6%.

In the case of `CC1=CC(C)(C)N2C(=O)C3(Nc4ccccc4CO3)c3cc(C)cc1c32` (stereo not shown) [MWAC-0001770, CC1=CC(C)(C)N2C(=O)C3(Nc4ccccc4CO3)c5cc(C)cc1c25], the “% inhibition (20 µM) biochemical” value stood at 0.845%.

As to `O=C1NC(=S)NC(=O)C1=Cc1ccccc1OS(=O)(=O)c1ccc2ccccc2c1` [MWAC-0001813, O=C1NC(=S)NC(=O)C1=Cc2ccccc2OS(=O)(=O)c3ccc4ccccc4c3], the “% inhibition (20 µM) biochemical” value is on record as 4.38%. For `CCOc1ccc(-c2nc(CSc3nnc(N)[nH]3)cs2)cc1` [MWAC-0001853, CCOc1ccc(cc1)c2nc(CSc3nnc(N)[nH]3)cs2] the value was 1.25%; for `COc1cc(CSc2nnc[nH]2)c(OC)cc1CSc1nnc[nH]1` [MWAC-0001824, COc1cc(CSc2nnc[nH]2)c(OC)cc1CSc3nnc[nH]3], 0%; for `CCOc1ccccc1OCCCOc1ccccc1C=O` [MWAC-0001794, CCOc1ccccc1OCCCOc2ccccc2C=O], 2.44%. The result for `CC1=C(C(=O)OC(C)C)C(c2ccc(F)cc2)C2=C(CC(c3cccs3)CC2=O)N1` (stereo not shown) [MWAC-0001729, CC(C)OC(=O)C1=C(C)NC2=C(C1c3ccc(F)cc3)C(=O)CC(C2)c4cccs4] reads 0%; that for `COc1ccccc1N1CCN(C(=O)CCl)CC1` [MWAC-0001823, COc1ccccc1N2CCN(CC2)C(=O)CCl], 98%; that for `O=C(CCl)NCCOc1ccccc1` [MWAC-0001864, ClCC(=O)NCCOc1ccccc1], 58%. Turning to `COc1ccc(C(=O)NNC(=O)Cc2ccc(-c3ccccc3)cc2)cc1` [MWAC-0001846, COc1ccc(cc1)C(=O)NNC(=O)Cc2ccc(cc2)c3ccccc3], the “% inhibition (20 µM) biochemical” value turned out to be 0.595%. Regarding `O=[N+]([O-])c1cc(C(F)(F)F)ccc1NCCNS(=O)(=O)Cc1ccccc1` [MWAC-0001800, [O-][N+](=O)c1cc(ccc1NCCNS(=O)(=O)Cc2ccccc2)C(F)(F)F], the “% inhibition (20 µM) biochemical” value stood at 3.51%. On to `CCOc1ccc2nc(NC(=O)C3CC3)sc2c1` [MWAC-0001795, CCOc1ccc2nc(NC(=O)C3CC3)sc2c1], for which the “% inhibition (20 µM) biochemical” value was 8%. For `Nc1ccc(C(=O)Nc2ccccc2N)cc1` [MWAC-0001836, Nc1ccc(cc1)C(=O)Nc2ccccc2N] the value was 5%.
